Type in all cases: functional
Common to all, as to details: time 7-10 day

Experiment [1] relates to Mycobacterium tuberculosis. In words: Antitubercular activity against INH/RIF-resistant Mycobacterium tuberculosis clinical isolate M15 assessed as inhibition of bacterial growth incubated for 7 to 10 days by Alamar Blue staining based analysis. (In general: Alamar Blue is a resazurin reagent that responds to reducing activity.)
In experiment [2] the test system is Mycobacterium tuberculosis. In words: Antitubercular activity against INH/RIF-resistant Mycobacterium tuberculosis clinical isolate M6 assessed as inhibition of bacterial growth incubated for 7 to 10 days by Alamar Blue staining based analysis.
Experiment [3] concerns Mycobacterium tuberculosis. In words: Antitubercular activity against INH/RIF-resistant Mycobacterium tuberculosis clinical isolate M34 assessed as inhibition of bacterial growth incubated for 7 to 10 days by Alamar Blue staining based analysis.
Experiment [4] deals with Mycobacterium tuberculosis. In words: Antitubercular activity against INH/RIF-resistant Mycobacterium tuberculosis clinical isolate M7 assessed as inhibition of bacterial growth incubated for 7 to 10 days by Alamar Blue staining based analysis.

In brackets after ≈: the same amount, converted by molar mass. A value given as a limit tells only on which side of the number the result lay.

As to `O=C(O)[C@H]1Cc2c[nH]c3cccc(c23)S1`, the MIC in experiment [1], in experiment [2], in experiment [3] and in experiment [4] was 0.78 µg/mL (≈ 3.56 µM) throughout.

Turning to `CC1(C)c2c[nH]c3cccc(c23)S[C@H]1C(=O)O`, the MIC stood at 12.5 µg/mL (≈ 50.5 µM) in experiment [1], 12.5 µg/mL (≈ 50.5 µM) in experiment [2], 25 µg/mL (≈ 101 µM) in experiment [3] and 25 µg/mL (≈ 101 µM) in experiment [4].

For the compound `C[C@H]1c2c[nH]c3cccc(c23)S[C@H]1C(=O)O` [CHUANGXINMYCIN], the MIC was determined as 1.56 µg/mL (≈ 6.69 µM) in experiment [1], 0.78 µg/mL (≈ 3.34 µM) in experiment [2], 3.12 µg/mL (≈ 13.4 µM) in experiment [3] and 0.78 µg/mL (≈ 3.34 µM) in experiment [4].

`NNC(=O)c1ccncc1` [ISONIAZID]: the MIC in experiment [1] worked out at 4 µg/mL (≈ 29.2 µM); in experiment [2], 8 µg/mL (≈ 58.3 µM); in experiment [3], 8 µg/mL (≈ 58.3 µM); in experiment [4] it was 8 µg/mL (≈ 58.3 µM).

Regarding `CO[C@H]1/C=C/O[C@@]2(C)Oc3c(C)c(O)c4c(O)c(c(/C=N/N5CCN(C)CC5)c(O)c4c3C2=O)NC(=O)/C(C)=C\C=C\[C@H](C)[C@H](O)[C@@H](C)[C@@H](O)[C@@H](C)[C@H](OC(C)=O)[C@@H]1C` [RIFAMPIN], the MIC in experiment [1] was more than 64 µg/mL; in experiment [2], 16 µg/mL (≈ 19.4 µM); in experiment [3] it was 16 µg/mL (≈ 19.4 µM); in experiment [4], 8 µg/mL (≈ 9.72 µM).

For orientation: MIC means the lowest concentration found to suppress growth.

(Values after ChEMBL document CHEMBL5226381, “Iterative Methylation Leads to 3-Methylchuangxinmycin Production in Actinoplanes tsinanensis CPCC 200056” (2023).)
